Source: PubChem BioAssay (NCI)
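Interpolation was linear, between the two tested concentrations surrounding the appropriate level; five concentrations were tested over 48 hours in 96-well plates. The concentration for 50% growth inhibition is given as GI50. TGI is the concentration that stops growth completely.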

Legend:
Test in all cases: NCI anticancer screen, dose series, 48 h
[1] = system: SF-295 CNS
[2] = system: KM12 colon
[3] = system: 786-0 renal
[4] = system: MDA-MB-435
[5] = system: IGROV1 ovarian
[6] = system: MCF7 breast
[7] = system: NCI-H460 lung
[8] = system: SK-MEL-28 melanoma
[9] = system: HL-60(TB) leukemia
[10] = system: MOLT-4 leukemia
[11] = system: U251 CNS
[12] = system: OVCAR-4 ovarian
[13] = system: RXF 393 renal
[14] = system: HOP-92 NSCLC
[15] = system: SNB-19 CNS
[16] = system: SK-MEL-5 melanoma
[17] = system: HOP-62 NSCLC
[18] = system: SK-MEL-2 melanoma
[19] = system: SNB-75 CNS
[20] = system: HS 578T breast
[21] = system: ACHN renal
[22] = system: DU-145 prostate
[23] = system: K-562 leukemia
[24] = system: PC-3 prostate
[25] = system: T-47D breast
[26] = system: A549 NSCLC
[27] = system: SF-539 CNS
[28] = system: NCI/ADR-RES ovarian
[29] = system: MDA-MB-231 breast
[30] = system: HCC-2998 colon
[31] = system: M14 melanoma
[32] = system: CAKI-1 renal
[33] = system: NCI-H522 lung
[34] = system: SN12C renal
[35] = system: EKVX NSCLC
[36] = system: SK-OV-3 ovarian
[37] = system: RPMI-8226 leukemia
[38] = system: UO-31 renal
[39] = system: A498 renal
[40] = system: HT29 colon
[41] = system: UACC-257 melanoma
[42] = system: OVCAR-8 ovarian
[43] = system: BT-549 breast
[44] = system: SR leukemia
[45] = system: COLO 205 colon
[46] = system: OVCAR-5 ovarian
[47] = system: NCI-H226 lung
[48] = system: MALME-3M melanoma
[49] = system: TK-10 renal
[50] = system: SW-620 colon
[51] = system: HCT-15 colon
[52] = system: UACC-62 melanoma
[53] = system: CCRF-CEM leukemia
[54] = system: SF-268 CNS
[55] = system: HCT-116 colon
[56] = system: NCI-H23 lung

## Nc1cc(F)ccc1NC(=O)c1ccc(NC(=O)C/C=C/c2cccnc2)cn1
[1]
  GI50: 1.8 µM
  TGI: 7.36 µM
[2]
  GI50: 2.8 µM
  TGI: > 50 µM
[3]
  GI50: 2.2 µM
  TGI: > 50 µM
[4]
  GI50: 1.25 µM
  TGI: 7.18 µM
[5]
  GI50: 0.804 µM
  TGI: > 50 µM
[6]
  GI50: 1.11 µM
  TGI: 10 µM
[7]
  GI50: 1.43 µM
  TGI: > 50 µM
[8]
  GI50: 1.35 µM
  TGI: 4.23 µM
[9]
  GI50: 0.525 µM
  TGI: > 50 µM
[10]
  GI50: 0.908 µM
  TGI: > 50 µM
[11]
  GI50: 1.51 µM
  TGI: > 50 µM
[12]
  GI50: 2.21 µM
  TGI: > 50 µM
[13]
  GI50: 0.938 µM
  TGI: 3.48 µM
[14]
  GI50: 0.699 µM
  TGI: 10.9 µM
[15]
  GI50: 2.15 µM
  TGI: > 50 µM
[16]
  GI50: 0.96 µM
  TGI: 1.9 µM
[17]
  GI50: 1.99 µM
  TGI: > 50 µM
[18]
  GI50: 2.01 µM
  TGI: > 50 µM
[19]
  GI50: 0.794 µM
  TGI: 47.3 µM
[20]
  GI50: 1.3 µM
  TGI: > 50 µM
[21]
  GI50: 2.21 µM
  TGI: > 50 µM
[22]
  GI50: 1.1 µM
  TGI: 5.16 µM
[23]
  GI50: 0.302 µM
  TGI: > 50 µM
[24]
  GI50: 1.11 µM
  TGI: > 50 µM
[25]
  GI50: 0.75 µM
  TGI: > 50 µM
[26]
  GI50: 3.02 µM
  TGI: > 50 µM
[27]
  GI50: 0.177 µM
  TGI: 4 µM
[28]
  GI50: 1.31 µM
  TGI: > 50 µM
[29]
  GI50: 8.61 µM
  TGI: > 50 µM
[30]
  GI50: 1.43 µM
  TGI: 6.98 µM
[31]
  GI50: 0.563 µM
  TGI: > 50 µM
[32]
  GI50: 1.88 µM
  TGI: 13.8 µM
[33]
  GI50: 0.629 µM
  TGI: 30 µM
[34]
  GI50: 0.364 µM
  TGI: > 50 µM
[35]
  GI50: 2.49 µM
  TGI: > 50 µM
[36]
  GI50: 2.58 µM
  TGI: > 50 µM
[37]
  GI50: 0.24 µM
  TGI: 2.05 µM
[38]
  GI50: 1.63 µM
  TGI: > 50 µM
[39]
  GI50: 0.937 µM
  TGI: 3.37 µM
[40]
  GI50: 1.5 µM
  TGI: > 50 µM
[41]
  GI50: 1.65 µM
  TGI: > 50 µM
[42]
  GI50: 0.147 µM
  TGI: > 50 µM
[43]
  GI50: 1.3 µM
  TGI: 8.31 µM
[44]
  GI50: 0.876 µM
  TGI: > 50 µM
[45]
  GI50: 0.576 µM
  TGI: 10.4 µM
[46]
  GI50: 0.781 µM
  TGI: > 50 µM
[47]
  GI50: 2.3 µM
  TGI: > 50 µM
[48]
  GI50: 0.465 µM
  TGI: 4.81 µM
[49]
  GI50: 0.673 µM
  TGI: 8.16 µM
[50]
  GI50: 0.208 µM
  TGI: 12.5 µM
[51]
  GI50: 0.667 µM
  TGI: > 50 µM
[52]
  GI50: 1.31 µM
  TGI: 5.95 µM
[53]
  GI50: 0.2 µM
  TGI: > 50 µM
[54]
  GI50: 2.24 µM
  TGI: > 50 µM
[55]
  GI50: 0.186 µM
  TGI: 3.42 µM
[56]
  GI50: 1.68 µM
  TGI: 37.9 µM
